What is called IC50 is the concentration at which inhibition is half-maximal. Low readings indicate higher potency, high ones lower potency.

From US20250179094A1, “TGF-B INHIBITOR COMPOUND AND USE THEREOF” (Medinno Pharmaceutical Technology (Zhuhai) Co., Ltd., priority 2022, published 2025) come the findings set out here.

The assay deals with human TGFβR1 (Homo sapiens (Human), UniProt P36897). The experiment in a line: TGFβR1 kinase activity assay (ADP-Glo method). The class given is biochemical. To be noted: ATP 5 uM, TGFβR1tide substrate, 60 minutes at room temperature. The procedure: The principle of the activity assay was that TGFβR1 phosphorylates the substrate TGFβR1tide, consuming ATP in the process. […] The specific experimental steps were as follows. Compounds were diluted 4-fold in DMSO in a dilution plate, with the final starting concentration of the compounds being 10 μM, across 10 concentration gradient points. The compounds were then further diluted 50-fold into the kinase reaction buffer and incubated on a shaker for 20 minutes. Kinase was formulated with an enzyme reaction buffer. 2 μl kinase was added to each well of the reaction plate. 1 μl of the compound diluted in buffer was added to each well, and then the plate was sealed with a sealing membrane and centrifuged at 1000 g for 30 seconds, leaving it at room temperature for 10 minutes. Solutions of TGFβR1tide and ATP were prepared with the kinase reaction buffer, and 2 μL of the TGFβR1tide/ATP solution was added to the reaction plate. The plate was sealed with a sealing film and centrifuged at 1000 g for 30 seconds. It was allowed to react at room temperature for 60 minutes. Subsequently, 4 μL of ADP-Glo was transferred to a 384-well reaction plate and centrifuged at 1000 rpm/min for 1 minute, followed by incubation at 25° C. for 40 minutes. Then, 8 μL of Detection solution was transferred to the 384-well reaction plate and centrifuged at 1000 rpm/min for 1 minute, after which it was incubated at 25° C. for 40 minutes. The RLU (Relative Luminescence Unit) signal was read using a BMG microplate reader, which was used to characterize the degree of kinase activity.
3.1 The inhibition rate was calculated as follows: inhibition rate of compound (% inh)=100%−(compound−positive control)/(negative control−positive control)*100%.
The IC50 (half inhibition concentration) of a compound was obtained using the following non-linear fitting equation, wherein data analysis was performed using Graphpad 7.0 software.
X: log value of compound concentration; and Y: inhibition rate (% inhibition)
Background: ADP-Glo turns the ADP formed in a reaction into a luminescent signal.

Sequence of human TGFβR1 (P36897 34-503): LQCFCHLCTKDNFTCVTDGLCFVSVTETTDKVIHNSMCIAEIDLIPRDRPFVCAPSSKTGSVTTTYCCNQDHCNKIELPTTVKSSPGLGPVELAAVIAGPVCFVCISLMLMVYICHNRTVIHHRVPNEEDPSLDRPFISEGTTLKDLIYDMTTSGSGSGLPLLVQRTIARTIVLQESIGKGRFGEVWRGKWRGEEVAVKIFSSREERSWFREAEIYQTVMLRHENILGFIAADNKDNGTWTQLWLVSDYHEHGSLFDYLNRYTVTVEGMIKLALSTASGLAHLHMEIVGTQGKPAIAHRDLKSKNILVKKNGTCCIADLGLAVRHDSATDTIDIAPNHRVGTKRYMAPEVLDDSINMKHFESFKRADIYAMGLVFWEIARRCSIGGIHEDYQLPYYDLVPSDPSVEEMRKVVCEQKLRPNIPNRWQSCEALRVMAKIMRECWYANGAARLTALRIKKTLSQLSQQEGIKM

Molecule `Cc1cccc(-c2nn3c(c2-c2ccnc(-c4nc5c([nH]4)CN(S(C)(=O)=O)C5)c2)CCC3)n1` [Compound 66, 2-(4-(2-(6-Methylpyridin-2-yl)-5,6-dihydro-4H-pyrrolo[1,2-b]pyrazol-3-yl)pyridin-2-yl)-5-(methylsulfonyl)-1,4,5,6-tetrahydropyrrolo[3,4-d]imidazole] had an IC50 of 4 nM.

The molecule `Cc1cccc(-c2nn3c(c2-c2ccnc(-c4nc5c([nH]4)CN(C(=O)N(C)C)C5)c2)CCC3)n1` [Compound 67, N,N-Dimethyl-2-(4-(2-(6-methylpyridin-2-yl)-5,6-dihydro-4H-pyrrolo[1,2-b]pyrazol-3-yl)pyridin-2-yl)-4,6-dihydropyrrolo[3,4-d]imidazole-5(1H)-carboxamide] gave an IC50 of 2 nM.

The molecule `CCS(=O)(=O)N1Cc2nc(-c3cc(-c4c(-c5cccc(C)n5)nn5c4CCC5)ccn3)[nH]c2C1` [Compound 68] had a half-inhibitory concentration (IC50) of 8.1 nM.

As for `Cc1cccc(-c2nn3c(c2-c2ccnc(-c4nc5c([nH]4)CN(S(=O)(=O)C(C)C)C5)c2)CCC3)n1` [Compound 69, 5-(Isopropylsulfonyl)-2-(4-(2-(6-methylpyridin-2-yl)-5,6-dihydro-4H-pyrrolo[1,2-b]pyrazol-3-yl)pyridin-2-yl)-1,4,5,6-tetrahydropyrrolo[3,4-d]imidazole], the IC50 came out at 1.3 nM.

For the molecule `Cc1cccc(-c2nn3c(c2-c2ccnc(-c4nc5c([nH]4)CN(C(=O)C4CCN(C)CC4)C5)c2)CCC3)n1` [Compound 73, (1-Methylpiperidin-4-yl)(2-(4-(2-(6-methylpyridin-2-yl)-5,6-dihydro-4H-pyrrolo[1,2-b]pyrazol-3-yl)pyridin-2-yl)-4,6-dihydropyrrolo[3,4-d]imidazol-5(1H)-yl)ketone], the half-maximal inhibitory concentration (IC50) is 2.8 nM.

In turn, `CCN(C)C(=O)N1Cc2nc(-c3cc(-c4c(-c5cccc(C)n5)nn5c4CCC5)ccn3)[nH]c2C1` [Compound 74, N-Ethyl-N-methyl-2-(4-(2-(6-methylpyridin-2-yl)-5,6-dihydro-4H-pyrrolo[1,2-b]pyrazol-3-yl)pyridin-2-yl)-4,6-dihydropyrrolo[3,4-d]imidazole-5(1H)-carboxamide] returned an IC50 of 1.7 nM.

`Cc1cccc(-c2nc3n(c2-c2ccnc(-c4nc5c([nH]4)CNCC5)c2)CCC3)n1` [Compound 75, 2-(4-(2-(6-Methylpyridin-2-yl)-6,7-dihydro-5H-pyrrolo[1,2-a]imidazol-3-yl)pyridin-2-yl)-4,5,6,7-tetrahydro-3H-imidazolo[4,5-c]pyridine] gave a half-maximal inhibitory concentration (IC50) of 5.6 nM.

`Cc1cccc(-c2n[nH]cc2-c2ccnc(-c3nc4c([nH]3)CNCC4)c2)n1` [Compound 76] showed a concentration for half-maximal inhibition (IC50) of 13 nM.
